The record followed here is patent US6515010B1 (SmithKline Beecham Corporation, priority 1999, dated 2003).

Series [1] is described as follows: physchem. As to conditions: 25 °C, water, thermodynamic from solid.
A short description of series [2]: physchem.
Series [3] can be described thus: pKa of carvedilol free base. It counts as physicochemical.
Series [4] can be described thus: Aqueous solubility at 25° C. of carvedilol and its salt forms. The note with it: water.

≈ marks a conversion by molar mass, not a printed value.

What is called solubility is the concentration that dissolves in the medium under given conditions. A higher solubility goes with a readily soluble substance. For orientation: pKa means the negative logarithm of the acid dissociation constant. Low readings indicate a stronger acid or weaker base, high ones a weaker acid or stronger base. As usually defined, the Aqueous Solubility is the concentration that dissolves in the medium under given conditions.

With `COc1ccccc1OCCNCC(O)COc1cccc2[nH]c3ccccc3c12` (stereo not shown) [Carvedilol], in series [1], the solubility at 1 hr turned out to be 9.8 µg/mL (≈ 24.1 µM) and the solubility at 24 hr amounted to 11.6 µg/mL (≈ 28.5 µM). Moreover, the solubility in series [2] (pH 4, aqueous buffer) is roughly 200 µg/mL (≈ 492 µM). This molecule had a solubility in series [2] (pH 9, aqueous buffer) of less than 1 µg/mL. The pKa in series [3] stood at 7.6.

Consider Hydrochloride, for which the “aqueous solubility (in words)” value in series [4] is on record as “poorly soluble in water”. Further, the “Aqueous Solubility” value in series [4] (time 0.5 hr) worked out at 1650 µg/mL; in series [4] (time 1 hr) it was 1630 µg/mL; in series [4] (time 4 hr), 1370 µg/mL; in series [4] (time 70 hr), 1060 µg/mL.
